# Results published in patent publication US12576155B2, “Senolytic and antiinflammatory prodrugs and methods of use thereof” (priority 2019, dated 2026).
# Like-named read-outs stand apart in the source and are kept apart here.
# Tests used:
# [1] = tested on: senescent lung cells from 23-month-old mice; assay: Cell viability, mouse lung fibroblasts of old and young mice; assay type: cell-based; conditions: senescent lung cells from 23-month-old mice vs non-senescent lung cells from young mice; increasing doses
# Experimental: Mouse embryonic fibroblasts (MEFs) were isolated from E13.5 embryos as described previously (Zhao et al., Cell Stem Cell 23, 31-45 e37([…])). Newborn mouse skin fibroblasts (NBFs) were isolated from the skin of day 1-3 newborn mice. Adult mouse lung fibroblasts were isolated from 2-month-old and 23-month-old mice. Briefly, mouse embryonic tissues, skin and lung were obtained from described donor mice. Then, these tissues were minced with forceps and incubated in 2 mg/ml collagenase IV (Gibco) for 2-4 hours at 37° C. After enzyme treatment, cells were collected by centrifugation and resuspended in high-glucose DMEM (Gibco) supplemented with 10% fetal bovine serum (FBS) and 1% penicillin-streptomycin (Gibco). The three types of mouse primary cells were all cultured in a humidified incubator at 37° C. and 5% CO2.
# To test the viability of senescent and non-senescent cells treated with SSK1, cells were stained with a mixture of Hoechst 33342 and propidium iodide (PI) (CA1120, Solarbio) to distinguish living and dead cells. After treatment with the small molecules, the cell culture medium was removed, and the cells were washed once with PBS. […] The plate was incubated at 4° C. for 30 min and observed on a fluorescence microscope or automatic cell imaging system. Viable cells were quantified using a MD Image Xpress Micro XL (Molecular Devices).
# [2] = rhesus monkey, in vivo
# [3] = tested on: replication-induced senescent mouse embryonic fibroblasts (MEFs) and their non-senescent counterparts; assay: SSK1 metabolism analysis (release of gemcitabine, LC-MS/MS); assay type: in vitro ADME; conditions: 0.5 μM SSK1; senescent vs non-senescent MEFs; FIG. 1A
# Experimental: To detect the release of gemcitabine from SSK1 in senescent and non-senescent cells, the metabolism analysis was performed as previous reported (Karampelas et al., Mol Pharmaceut 14, 674-685(2017)). Briefly, the senescent and non-senescent cells were incubated with 0.5 μM SSK1 in DMEM medium containing 10% FBS and 1% penicillin-streptomycin for the indicated time. Then the cells slightly washed with water for twice and then harvested. Cold methanol used to extract the compounds and samples were prepared after centrifugation. The concentration of gemcitabine was determined by LC-MS/MS analysis.
# [4] = tested on: SARS-CoV-2-infected rhesus macaques; assay: SARS-CoV-2-infected rhesus macaques, early-stage SSK1 treatment (2.0 mg/kg once daily for 7 days from 0 dpi); assay type: in vivo; conditions: for Clinical observation: Body weight change (%) / Clinical observation: Increased temperature: 2.0 mg/kg
structure (smiles),measurement,setting,value
CC(=O)OCC1O[C@@H](Oc2ccc(COC(=O)Nc3ccn([C@@H]4O[C@H](CO)C(O)C4(F)F)c(=O)n3)cc2[N+](=O)[O-])C(OC(C)=O)C(OC(C)=O)[C@H]1OC(C)=O (some centres unmarked) [SSK1],Selective elimination of senescent cells (viable cells),[1],specifically eliminated these senescent cells
same,UA,[2]; 0.5 mg/kg,9 µmol/L
same,UA,[2]; 2 mg/kg,10 µmol/L
same,Metabolism of SSK1 into gemcitabine,[3],specifically cleaved to release cytotoxic gemcitabine in senescent cells but not in non-senescent cells
same,Progression of pulmonary infiltrates on chest X-ray,[4]; 6 dpi compared to 3 dpi,no progression
same,Clinical observation: Body weight change (%),[4]; M1 adult 5-year,+4.62%
same,Clinical observation: Increased temperature,[4]; M1 adult 5-year,light
same,Clinical observation: Body weight change (%),[4]; M2 adult 5-year,+1.64%
same,Clinical observation: Increased temperature,[4]; M2 adult 5-year,light
same,Large necrotic lesions in the livers at necropsy,[4]; SSK1-treated group,not in the SSK1-treated group
same,Lung histopathology (H&E),[4]; SSK1-treated group,minimally thickened alveolar septum and focal edema
same,Serum level of IL-18,[4]; SSK1-treated group,increased significantly
same,"Virus shedding (virus load in nose, throat, anal swabs and blood, RT-qPCR)",[4]; SSK1-treated group,no delay but even faster reduction in virus shedding
same,Body temperature,"[4]; SSK1-treated group, 2 mg/kg",relatively stable
same,Body weight,"[4]; SSK1-treated group, 2 mg/kg, 0 to 7 dpi",remained constant
same,Airway narrowing and mucinous secretions (AB-PAS staining),[4]; SSK1 treatment,recovered the airway narrowing and extensive mucinous secretions
same,Gross lung lesions at necropsy,[4]; animal M1,Some brown punctate lesions
same,Pulmonary hemorrhages (H&E),[4]; animal M1,local pulmonary hemorrhages
same,Ground-glass opacification in the lungs on X-ray,"[4]; animal M1, 2 mg/kg, 3 dpi",Ground-glass opacification appeared
same,Gross lung lesions at necropsy,[4]; animal M2,No obvious lung lesions
same,Signs of pneumonia on X-ray,"[4]; animal M2, 2 mg/kg",no signs of pneumonia on X-ray throughout the experiment
same,"Concentrations of inflammatory cytokines GM-CSF, IL-1β, IL-12, MIP-1A and TNF-α in lung tissues",[4]; vs vehicle,lower
same,Viral load in the respiratory tract tissues and multiple organs,[4]; vs vehicle-treated group,grossly lower
